Source: publication PMC12503276, “A novel TRPV5/6-like channel from a scleractinian coral” (PLOS One, 2025)

Assays:
[1] = molecular target: T1, PdTRPV5/6-like (Pocillopora damicornis, UniProt Z9K305B7A5); assay: outside-out patch clamp, HEK293; format: cell-based
T1 construct: full-length ORF, 724 residues, cloned from aquarium coral cDNA into pcDNA3.1, HEK293 transient expression; EGFP on separate plasmid; tetramer
T1 sequence (Z9K305B7A5 1-724): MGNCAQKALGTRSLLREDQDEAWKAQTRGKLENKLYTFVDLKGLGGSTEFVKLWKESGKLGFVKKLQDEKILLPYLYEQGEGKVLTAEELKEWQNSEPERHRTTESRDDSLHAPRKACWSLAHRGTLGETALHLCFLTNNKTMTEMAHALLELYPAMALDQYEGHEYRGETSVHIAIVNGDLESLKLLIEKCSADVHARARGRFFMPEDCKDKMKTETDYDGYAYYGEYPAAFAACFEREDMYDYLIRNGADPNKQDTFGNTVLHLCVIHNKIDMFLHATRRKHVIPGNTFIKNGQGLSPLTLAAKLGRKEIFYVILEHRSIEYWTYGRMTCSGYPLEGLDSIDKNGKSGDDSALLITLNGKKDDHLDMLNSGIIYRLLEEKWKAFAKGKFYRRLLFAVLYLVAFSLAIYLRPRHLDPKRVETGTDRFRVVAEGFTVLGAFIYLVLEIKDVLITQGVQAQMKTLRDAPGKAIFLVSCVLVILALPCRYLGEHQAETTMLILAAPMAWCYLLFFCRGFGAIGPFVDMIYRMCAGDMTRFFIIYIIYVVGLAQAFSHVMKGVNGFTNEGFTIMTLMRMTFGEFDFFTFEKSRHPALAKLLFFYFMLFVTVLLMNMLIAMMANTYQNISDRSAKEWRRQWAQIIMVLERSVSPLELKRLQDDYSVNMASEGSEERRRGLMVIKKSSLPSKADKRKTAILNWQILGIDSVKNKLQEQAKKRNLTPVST

[2] = molecular target: T2, hTRPV5 (Homo sapiens, UniProt Q9NQA5); assay: outside-out patch clamp, HEK293; format: cell-based
T2 construct: gene TRPV5; EGFP on separate plasmid; tetramer
T2 sequence (Q9NQA5 whole entry): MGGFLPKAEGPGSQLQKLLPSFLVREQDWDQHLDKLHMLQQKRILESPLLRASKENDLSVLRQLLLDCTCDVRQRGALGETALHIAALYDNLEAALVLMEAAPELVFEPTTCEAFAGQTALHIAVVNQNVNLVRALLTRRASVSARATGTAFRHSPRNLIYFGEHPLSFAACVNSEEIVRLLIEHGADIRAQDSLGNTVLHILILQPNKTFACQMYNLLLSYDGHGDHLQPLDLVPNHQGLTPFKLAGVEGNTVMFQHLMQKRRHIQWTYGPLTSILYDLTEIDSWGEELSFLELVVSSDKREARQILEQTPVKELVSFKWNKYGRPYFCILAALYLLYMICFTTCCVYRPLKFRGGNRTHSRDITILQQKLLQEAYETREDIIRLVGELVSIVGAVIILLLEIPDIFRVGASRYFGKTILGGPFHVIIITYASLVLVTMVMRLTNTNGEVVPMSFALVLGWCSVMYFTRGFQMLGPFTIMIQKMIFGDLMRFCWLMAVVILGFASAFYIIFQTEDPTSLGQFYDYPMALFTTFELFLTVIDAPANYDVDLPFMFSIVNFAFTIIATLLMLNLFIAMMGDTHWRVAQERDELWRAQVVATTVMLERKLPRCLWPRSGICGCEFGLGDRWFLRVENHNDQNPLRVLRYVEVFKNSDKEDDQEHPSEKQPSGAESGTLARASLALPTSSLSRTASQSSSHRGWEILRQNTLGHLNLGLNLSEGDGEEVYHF

SMILES	IC50 [1]	IC50 [2]
CC(C)[C@@H]1CC[C@@H](C)C[C@H]1O [(-)-menthol]	120 µM	
Clc1ccc(COC(Cn2ccnc2)c2ccc(Cl)cc2Cl)c(Cl)c1 (centres unmarked) [miconazole]		0.0512 µM
